Numbered stars: 1 amine (or outer) side, 2 acyl side, 3 side chain; on linkers, the order of the positions; unused ones are H or OH. Square brackets hold non-standard residues; d marks the D form. Peptide text beside a SMILES is read from it. X1 = O=C1[C@@H](N[*:1])Cc2ccccc2CN1CCC(=O)[*:2]; Dmt = Cc1cc(O)cc(C)c1C[C@H](N)C(=O)O
Legend:
[1] = target: T1, Neuropeptide FF receptor 2 (Homo sapiens, UniProt Q9Y5X5); test: Agonist activity at NPFFR2 (unknown origin) expressed in HEK293 cells assessed as inhibition of forskolin-induced cAMP accumulation incubated for 30 mins relative to control; type: functional, cell-based; settings: filed as agonist
T1 sequence (Q9Y5X5 whole entry): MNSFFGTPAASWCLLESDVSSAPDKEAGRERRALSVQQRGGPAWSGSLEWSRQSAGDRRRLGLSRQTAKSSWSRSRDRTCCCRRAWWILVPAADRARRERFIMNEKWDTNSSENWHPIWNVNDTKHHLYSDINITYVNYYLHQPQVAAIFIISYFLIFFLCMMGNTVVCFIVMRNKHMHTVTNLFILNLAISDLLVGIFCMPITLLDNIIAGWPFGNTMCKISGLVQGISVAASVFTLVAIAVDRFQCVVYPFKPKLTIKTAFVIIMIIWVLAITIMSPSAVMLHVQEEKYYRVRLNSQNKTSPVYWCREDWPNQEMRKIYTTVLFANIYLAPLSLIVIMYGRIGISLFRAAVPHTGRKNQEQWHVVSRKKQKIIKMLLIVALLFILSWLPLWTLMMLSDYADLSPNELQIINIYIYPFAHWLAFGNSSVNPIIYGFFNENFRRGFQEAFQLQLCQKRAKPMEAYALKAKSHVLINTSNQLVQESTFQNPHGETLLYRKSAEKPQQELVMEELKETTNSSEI

[2] = target: T1, Neuropeptide FF receptor 2; test: Agonist activity at human NPFFR2 expressed in CHO cells assessed as inhibition of forskolin-induced cAMP accumulation incubated for 30 mins by LANCE cAMP assay; type: functional, cell-based
[3] = target: T1, Neuropeptide FF receptor 2; test: Binding affinity to human NPFFR2 by radioligand binding assay
[4] = target: Neuropeptide FF receptor 2 (Rattus norvegicus, UniProt Q9EQD2); test: Binding affinity to rat NPFFR2 by radioligand binding assay
Chain of Neuropeptide FF receptor 2 (Rattus norvegicus, UniProt Q9EQD2) (Q9EQD2 whole entry): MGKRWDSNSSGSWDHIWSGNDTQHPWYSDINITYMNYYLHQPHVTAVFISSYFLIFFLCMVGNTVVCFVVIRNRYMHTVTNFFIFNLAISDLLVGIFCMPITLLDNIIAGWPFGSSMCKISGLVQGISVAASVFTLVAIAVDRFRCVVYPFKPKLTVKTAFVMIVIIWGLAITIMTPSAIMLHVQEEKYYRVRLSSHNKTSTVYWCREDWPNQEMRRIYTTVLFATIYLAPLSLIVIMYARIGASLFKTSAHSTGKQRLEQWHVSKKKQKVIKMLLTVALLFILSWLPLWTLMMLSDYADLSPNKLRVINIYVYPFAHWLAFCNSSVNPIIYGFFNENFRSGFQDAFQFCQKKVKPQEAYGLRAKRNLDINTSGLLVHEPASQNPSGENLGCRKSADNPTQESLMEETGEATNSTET

[5] = target: Neuropeptide FF receptor 1 (Rattus norvegicus, UniProt Q9EP86); test: Binding affinity to rat NPFFR1 by radioligand binding assay
Chain of Neuropeptide FF receptor 1 (Rattus norvegicus, UniProt Q9EP86) (Q9EP86 whole entry): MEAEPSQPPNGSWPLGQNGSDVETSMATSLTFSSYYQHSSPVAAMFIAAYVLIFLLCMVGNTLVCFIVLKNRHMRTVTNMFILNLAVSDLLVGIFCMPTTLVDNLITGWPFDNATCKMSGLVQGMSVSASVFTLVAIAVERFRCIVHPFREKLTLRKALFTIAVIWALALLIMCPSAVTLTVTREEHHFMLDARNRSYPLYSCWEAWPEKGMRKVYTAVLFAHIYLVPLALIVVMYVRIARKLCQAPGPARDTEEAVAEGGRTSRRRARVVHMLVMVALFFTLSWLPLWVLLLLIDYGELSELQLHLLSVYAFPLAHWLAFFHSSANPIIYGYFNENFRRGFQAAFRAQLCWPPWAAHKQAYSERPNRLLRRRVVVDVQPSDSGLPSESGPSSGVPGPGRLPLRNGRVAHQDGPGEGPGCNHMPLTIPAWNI

[6] = target: T2, Neuropeptide FF receptor 1 (Homo sapiens, UniProt Q9GZQ6); test: Binding affinity to human NPFFR1 by radioligand binding assay
T2 sequence (Q9GZQ6 whole entry): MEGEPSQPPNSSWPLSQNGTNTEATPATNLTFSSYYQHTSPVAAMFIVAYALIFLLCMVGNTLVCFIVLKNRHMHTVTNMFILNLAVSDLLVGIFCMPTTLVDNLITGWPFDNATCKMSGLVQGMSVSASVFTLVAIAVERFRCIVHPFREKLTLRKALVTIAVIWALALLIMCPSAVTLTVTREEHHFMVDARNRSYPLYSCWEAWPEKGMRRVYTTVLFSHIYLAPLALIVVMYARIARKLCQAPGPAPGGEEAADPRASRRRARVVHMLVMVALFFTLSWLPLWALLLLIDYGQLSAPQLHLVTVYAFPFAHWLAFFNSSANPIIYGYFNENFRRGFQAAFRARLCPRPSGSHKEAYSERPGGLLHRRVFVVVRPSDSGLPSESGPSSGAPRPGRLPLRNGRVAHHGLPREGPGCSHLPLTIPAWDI

[7] = target: T2, Neuropeptide FF receptor 1; test: Agonist activity at NPFFR1 (unknown origin) expressed in mouse NIH3T3 cells by receptor selection and amplification technology assay; type: cell-based
[8] = target: T1, Neuropeptide FF receptor 2; test: Agonist activity at NPFFR2 (unknown origin) expressed in HEK293T cells harboring EP2 incubated for 15 mins by cAMP assay; type: functional, cell-based
[9] = target: T2, Neuropeptide FF receptor 1; test: Agonist activity at NPFFR1 (unknown origin) expressed in HEK293T cells harboring EP2 incubated for 15 mins by cAMP assay; type: functional, cell-based
[10] = target: T2, Neuropeptide FF receptor 1; test: Agonist activity at NPFFR1 (unknown origin) expressed in mouse NIH3T3 cells by receptor selection and amplification technology assay relative to control; type: cell-based
[11] = target: T2, Neuropeptide FF receptor 1; test: Agonist activity at NPFFR1 (unknown origin) expressed in HEK293T cells harboring EP2 incubated for 15 mins by cAMP assay relative to control; type: functional, cell-based
[12] = target: T1, Neuropeptide FF receptor 2; test: Agonist activity at NPFFR2 (unknown origin) expressed in HEK293T cells harboring EP2 incubated for 15 mins by cAMP assay relative to control; type: functional, cell-based; settings: filed as agonist
[13] = target: T1, Neuropeptide FF receptor 2; test: Agonist activity at NPFFR2 (unknown origin) expressed in mouse NIH3T3 cells by receptor selection and amplification technology assay relative to control; type: cell-based; settings: filed as agonist
[14] = target: T2, Neuropeptide FF receptor 1; test: Agonist activity at NPFFR1 (unknown origin) expressed in HEK-293A cells assessed as inhibition of forskolin-induced cAMP accumulation preincubated for 30 mins followed by [3H] cAMP addition measured after 2 hrs by scintillation counting method; type: functional, cell-based, HEK293-A
[15] = target: T1, Neuropeptide FF receptor 2; test: Agonist activity at NPFFR2 (unknown origin) expressed in HEK-293A cells assessed as inhibition of forskolin-induced cAMP accumulation preincubated for 30 mins followed by [3H] cAMP addition measured after 2 hrs by scintillation counting method; type: functional, cell-based, HEK293-A
[16] = target: T3, Kappa-type opioid receptor (Homo sapiens, UniProt P41145); test: Agonist activity at kappa opioid receptor (unknown origin) expressed in HEK-293A cells assessed as inhibition of forskolin-induced cAMP accumulation preincubated for 30 mins followed by [3H] cAMP addition measured after 2 hrs by scintillation counting method; type: functional, cell-based, HEK293-A
T3 sequence (P41145 whole entry): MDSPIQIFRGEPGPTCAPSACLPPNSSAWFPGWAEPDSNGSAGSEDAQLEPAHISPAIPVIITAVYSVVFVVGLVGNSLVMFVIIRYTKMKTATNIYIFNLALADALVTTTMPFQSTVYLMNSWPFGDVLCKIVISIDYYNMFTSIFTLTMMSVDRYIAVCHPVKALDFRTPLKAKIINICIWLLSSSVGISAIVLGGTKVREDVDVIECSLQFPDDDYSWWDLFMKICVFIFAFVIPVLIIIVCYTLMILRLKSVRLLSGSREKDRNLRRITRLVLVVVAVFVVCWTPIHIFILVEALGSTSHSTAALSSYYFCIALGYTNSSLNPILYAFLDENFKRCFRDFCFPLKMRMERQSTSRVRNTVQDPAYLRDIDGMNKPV

[17] = target: T2, Neuropeptide FF receptor 1; test: Displacement of 125I-NPFF from human NPFFR1 incubated for 2 hrs by TopCount scintillation counting method
[18] = target: T1, Neuropeptide FF receptor 2; test: Displacement of 125I-NPFF from human NPFFR2 incubated for 2 hrs by TopCount scintillation counting method
[19] = target: T1, Neuropeptide FF receptor 2; test: Agonist activity at NPFFR2 (unknown origin) expressed in mouse NIH3T3 cells by receptor selection and amplification technology assay; type: cell-based
[20] = target: Mu-type opioid receptor (Homo sapiens) (UniProt P35372); test: Agonist activity at human mu-opioid receptor expressed in HEK293 cells assessed as inhibition of forskolin-induced cAMP accumulation preincubated for 15 mins followed by forskolin addition in presence of IBMX by Glo-sensor cAMP assay relative to control; type: functional, cell-based; settings: filed as agonist
Chain of Mu-type opioid receptor (Homo sapiens) (P35372 whole entry): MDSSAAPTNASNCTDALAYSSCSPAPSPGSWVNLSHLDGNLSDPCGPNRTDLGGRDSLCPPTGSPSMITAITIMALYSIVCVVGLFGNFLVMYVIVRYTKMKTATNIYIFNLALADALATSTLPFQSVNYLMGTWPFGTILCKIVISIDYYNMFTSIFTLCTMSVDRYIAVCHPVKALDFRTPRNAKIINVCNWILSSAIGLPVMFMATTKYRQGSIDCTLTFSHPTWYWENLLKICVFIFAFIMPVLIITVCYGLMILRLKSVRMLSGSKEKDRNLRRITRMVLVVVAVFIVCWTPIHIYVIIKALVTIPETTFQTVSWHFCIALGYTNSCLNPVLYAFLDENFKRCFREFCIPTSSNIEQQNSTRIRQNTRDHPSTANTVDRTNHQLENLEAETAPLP

[21] = target: T2, Neuropeptide FF receptor 1; test: Agonist activity at human NPFFR1 expressed in CHO cells by [35S]-GTP S binding assay relative to control; type: cell-based; settings: filed as agonist
[22] = target: Nociceptin receptor (Homo sapiens, UniProt P41146); test: Agonist activity at human nociceptin receptor expressed in HEK293 cells assessed as inhibition of forskolin-induced cAMP accumulation incubated for 15 mins followed by forskolin addition in presence of IBMX by Glo-sensor cAMP assay; type: functional, cell-based
Chain of Nociceptin receptor (P41146 whole entry): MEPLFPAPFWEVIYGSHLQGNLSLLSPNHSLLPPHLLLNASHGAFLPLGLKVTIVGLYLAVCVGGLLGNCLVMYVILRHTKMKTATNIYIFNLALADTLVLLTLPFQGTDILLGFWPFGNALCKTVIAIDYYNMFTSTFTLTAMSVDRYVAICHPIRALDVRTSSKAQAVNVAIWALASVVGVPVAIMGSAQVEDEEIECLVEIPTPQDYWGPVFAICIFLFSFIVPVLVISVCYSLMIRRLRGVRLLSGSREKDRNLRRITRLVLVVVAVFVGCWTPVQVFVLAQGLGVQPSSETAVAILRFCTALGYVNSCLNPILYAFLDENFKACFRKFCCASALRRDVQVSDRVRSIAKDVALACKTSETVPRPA

[23] = target: Delta-type opioid receptor (Homo sapiens) (UniProt P41143); test: Agonist activity at human delta-opioid receptor expressed in HEK293 cells assessed as inhibition of forskolin-induced cAMP accumulation preincubated for 15 mins followed by forskolin addition in presence of IBMX by Glo-sensor cAMP assay relative to control; type: functional, cell-based; settings: filed as agonist
Chain of Delta-type opioid receptor (Homo sapiens) (P41143 whole entry): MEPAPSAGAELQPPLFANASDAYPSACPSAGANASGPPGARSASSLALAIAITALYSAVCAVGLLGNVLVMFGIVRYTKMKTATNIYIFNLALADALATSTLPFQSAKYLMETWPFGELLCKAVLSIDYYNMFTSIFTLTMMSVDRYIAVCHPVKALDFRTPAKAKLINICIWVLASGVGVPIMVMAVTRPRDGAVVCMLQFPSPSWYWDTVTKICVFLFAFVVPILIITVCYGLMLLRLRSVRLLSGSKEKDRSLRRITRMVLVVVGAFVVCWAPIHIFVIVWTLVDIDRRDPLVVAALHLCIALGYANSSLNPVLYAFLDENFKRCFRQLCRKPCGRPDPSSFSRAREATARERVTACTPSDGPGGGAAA

[24] = target: T3, Kappa-type opioid receptor; test: Agonist activity at human kappa opioid receptor expressed in HEK293 cells assessed as inhibition of forskolin-induced cAMP accumulation incubated for 15 mins followed by forskolin addition in presence of IBMX by Glo-sensor cAMP assay relative to control; type: functional, cell-based; settings: filed as agonist
[25] = target: T1, Neuropeptide FF receptor 2; test: Agonist activity at human NPFFR2 expressed in CHO cells by [35S]-GTP S binding assay relative to control; type: cell-based; settings: filed as agonist
[26] = target: T3, Kappa-type opioid receptor; test: Agonist activity at human kappa opioid receptor expressed in HEK293 cells assessed as inhibition of forskolin-induced cAMP accumulation incubated for 15 mins followed by forskolin addition in presence of IBMX by Glo-sensor cAMP assay; type: functional, cell-based
[27] = target: T2, Neuropeptide FF receptor 1; test: Displacement of [3H]-FFRF-NH2 from human FLAG-tagged NPFFR1 expressed in CHO cell membrane incubated for 30 mins by Topcount scintillation counting method
[28] = target: T1, Neuropeptide FF receptor 2; test: Displacement of [3H]-FFRF-NH2 from human FLAG-tagged NPFFR2 expressed in CHO cell membrane incubated for 30 mins by Topcount scintillation counting method
[29] = target: T2, Neuropeptide FF receptor 1; test: Displacement of [125I]YVP from human NPFFR1 expressed in CHO cells; type: cell-based
[30] = target: T2, Neuropeptide FF receptor 1; test: Antagonist activity at human NPFFR1 expressed in CHO cells assessed as reversal of NPVF-induced inhibition of forskolin-stimulated cAMP accumulation incubated for 10 mins by liquid scintillation counting method; type: functional, cell-based
[31] = target: T1, Neuropeptide FF receptor 2; test: Displacement of [125I]Tyr-NPFF from human NPFFR2 expressed in green monkey Cos-1 cells; type: cell-based
[32] = target: T2, Neuropeptide FF receptor 1; test: Antagonist activity at human NPFFR1 expressed in CHO-K1 cells assessed as reversal of agonist-induced inhibition of forskolin-stimulated cAMP accumulation incubated for 30 mins by LANCE ultra cAMP assay; type: functional, cell-based
[33] = target: T1, Neuropeptide FF receptor 2; test: Antagonist activity at human NPFFR2 expressed in CHO-K1 cells assessed as reversal of agonist-induced inhibition of forskolin-stimulated cAMP accumulation incubated for 30 mins by LANCE ultra cAMP assay; type: functional, cell-based
[34] = target: T4, Pyroglutamylated RF-amide peptide receptor (Homo sapiens, UniProt Q96P65); test: Displacement of [125I]-43RFa from human QRFP receptor expressed in CHO cell membrane by TopCount scintillation counter method; type: cell membranes
T4 sequence (Q96P65 whole entry): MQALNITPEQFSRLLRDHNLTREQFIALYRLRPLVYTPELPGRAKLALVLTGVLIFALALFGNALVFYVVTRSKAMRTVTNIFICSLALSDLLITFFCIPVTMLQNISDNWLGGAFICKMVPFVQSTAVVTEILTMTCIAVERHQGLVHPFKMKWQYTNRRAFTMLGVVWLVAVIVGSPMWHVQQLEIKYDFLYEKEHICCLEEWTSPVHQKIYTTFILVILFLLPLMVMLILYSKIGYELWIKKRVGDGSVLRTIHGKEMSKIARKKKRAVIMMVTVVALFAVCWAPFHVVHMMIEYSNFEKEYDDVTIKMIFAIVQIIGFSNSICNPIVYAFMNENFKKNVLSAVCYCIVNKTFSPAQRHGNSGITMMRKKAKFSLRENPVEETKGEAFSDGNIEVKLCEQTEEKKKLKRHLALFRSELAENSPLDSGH

[35] = target: T2, Neuropeptide FF receptor 1; test: Displacement of [3H]-FFRF-NH2 from human NPFFR1 expressed in CHO cell membrane by Topcount scintillation counting method; type: cell membranes
[36] = target: T1, Neuropeptide FF receptor 2; test: Displacement of [3H]-FFRF-NH2 from human NPFFR2 expressed in CHO cell membrane by Topcount scintillation counting method; type: cell membranes
[37] = target: T5, Prolactin-releasing peptide receptor (Homo sapiens, UniProt P49683); test: Displacement of [3H]-PrRP-20 from human PrRP receptor expressed in CHO cell membrane by TopCount scintillation counter method; type: cell membranes
T5 sequence (P49683 whole entry): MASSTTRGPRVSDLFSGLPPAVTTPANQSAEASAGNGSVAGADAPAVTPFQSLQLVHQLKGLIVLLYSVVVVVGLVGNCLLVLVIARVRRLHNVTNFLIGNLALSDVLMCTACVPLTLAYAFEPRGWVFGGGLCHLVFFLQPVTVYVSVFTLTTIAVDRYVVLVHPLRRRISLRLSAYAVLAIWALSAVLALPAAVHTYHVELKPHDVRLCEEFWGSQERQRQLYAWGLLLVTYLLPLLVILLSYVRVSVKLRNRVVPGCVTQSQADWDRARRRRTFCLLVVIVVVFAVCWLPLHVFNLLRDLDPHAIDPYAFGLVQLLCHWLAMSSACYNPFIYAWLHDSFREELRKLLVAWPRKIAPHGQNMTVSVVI

[38] = target: KiSS-1 receptor (Homo sapiens, UniProt Q969F8); test: Displacement of [125I]-Kp-10 from human KISS1R expressed in CHO cell membrane by TopCount scintillation counter method; type: cell membranes
Chain of KiSS-1 receptor (Q969F8 whole entry): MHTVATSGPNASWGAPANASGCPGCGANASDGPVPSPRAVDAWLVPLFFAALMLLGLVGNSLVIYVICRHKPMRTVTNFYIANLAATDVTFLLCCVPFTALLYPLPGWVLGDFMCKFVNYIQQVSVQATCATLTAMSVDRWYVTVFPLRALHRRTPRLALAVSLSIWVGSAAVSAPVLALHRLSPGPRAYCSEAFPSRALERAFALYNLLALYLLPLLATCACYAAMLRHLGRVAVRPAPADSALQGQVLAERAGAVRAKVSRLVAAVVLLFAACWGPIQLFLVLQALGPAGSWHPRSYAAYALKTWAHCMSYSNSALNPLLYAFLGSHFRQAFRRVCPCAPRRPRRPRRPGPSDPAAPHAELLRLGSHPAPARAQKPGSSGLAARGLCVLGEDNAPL

C[C@@H](NC(=O)[C@@H](N)Cc1ccc(O)cc1)C(=O)NCC(=O)N[C@@H](Cc1ccccc1)C(=O)N[C@@H](CCC(N)=O)C(=O)N1CCC[C@H]1C(=O)N[C@@H](CCC(N)=O)C(=O)N[C@@H](CCCNC(=N)N)C(=O)N[C@@H](Cc1ccccc1)C(N)=O (H-Y[dA]GFQPQRF-NH2)
Emax [1]: 117%
EC50 [2]: 178 nM

Cc1cc(NC(=N)N)nc2ccccc12
Ki [3]: 91 nM
Ki [4]: 185 nM
Ki [5]: 7 nM
Ki [6]: 13 nM

N=C(N)N/N=C/c1ccc(-c2ccccc2C(F)(F)F)o1
EC50 [7]: 251 nM
EC50 [8]: 3160 nM
EC50 [9]: 1260 nM
Efficacy ([10]; filed as agonist): 57.8%
Efficacy ([11]; filed as agonist): 93%
Efficacy [12]: 114%
Efficacy [13]: 72.1%

N=C(N)NCCC[C@H](NC(=O)[C@H](CCC(N)=O)NC(=O)[C@@H]1CCCN1C(=O)[C@H](CCC(N)=O)NC(=O)[C@H](Cc1ccccc1)NC(=O)[C@H](Cc1ccccc1)NC(=O)[C@@H]1CCCN1C(=O)[C@@H](N)Cc1ccc(O)cc1)C(=O)N[C@@H](Cc1ccccc1)C(N)=O (H-YPFFQPQRF-NH2)
EC50 [14]: 599 nM
EC50 [15]: 25.3 nM
EC50 [16]: 4.44 nM

N=C(N)N/N=C/c1ccc(Br)c(Br)c1
Efficacy [10]: 11%
Ki [17]: 100 nM
Ki [18]: 126 nM
Efficacy [11]: 23%
EC50 [19]: 794 nM

Cc1cc(O)cc(C)c1C[C@H](N)C(=O)N[C@H](CCCNC(=N)N)C(=O)N[C@H]1Cc2ccccc2CN(CCC(=O)N[C@@H](CCCNC(=N)N)C(=O)N[C@@H](Cc2ccccc2)C(N)=O)C1=O (H-[Dmt][dR][X1]RF-NH2)
Emax [20]: 92%
Emax [21]: 88%
EC50 [22]: > 10000 nM
Emax [23]: 89%
Emax [24]: 95%
Emax [25]: 111%
EC50 [26]: 108 nM

O=C(N[C@@H](CCCN1CCCCC1)C(=O)NCCc1ccccc1)c1ccccc1-c1ccccc1
Ki [27]: 172 nM
Ki [28]: 560 nM

NC(=O)[C@H](Cc1ccccc1)NC(=O)[C@H](CCCN=C(N)N)NC(=O)C12CC3CC(CC(C3)C1)C2
Ki [29]: 58 nM
EC50 [30]: 4700 nM
Ki [31]: 75 nM

N=C(N)NCCC[C@@H](NC(=O)C(c1ccccc1)c1ccccc1)C(=O)N[C@@H](C(N)=O)c1ccccc1
IC50 [32]: 21 nM
IC50 [33]: 387 nM

NC1=NC=C(c2ccc(Cl)c(Cl)c2)CN1
Ki [34]: > 5000 nM
Ki [35]: 1 nM
Ki [36]: 37 nM
Ki [37]: > 5000 nM
Ki [38]: > 5000 nM

Source: ChEMBL document CHEMBL4765381, “Neuropeptide FF and Its Receptors: Therapeutic Applications and Ligand Development” (J Med Chem, 2020)
